We go through 4 molecules from US20050008653A1, “Stabilizing molecule” (Medical Research Council, priority 2001, published 2005).

In data set [1] the test system is H1299 cells containing p53 R175H. Kind of data set: Distribution of FL-CDB3 in cells (fluorescence microscopy). Format: cell-based. Conditions: without Lipofectamine. As to the method:
The results can be seen in FIG. 8.
Top left: H1299 cells containing p53 R 175H. […] The peptide remained visible for at least 48 h.

For data set [2], the target named is T1, p53 core domain (Homo sapiens, UniProt P04637). The data set can be described thus: Refolding of urea-denatured p53 core domain by fluorescence anisotropy. Conditions: 3 M urea, 10° C. Format: biochemical. Also on record: human p53 core domain wild-type and mutants (residues 94-312); made in house. The text has this:
Upon mixing the peptide with p53 core domain a rapid binding event takes place, leading to the formation of a FL-CDB3-p53 core domain complex. […] There is an increase in the anisotropy over time, as the peptide induced protein refolding by mass action (FIG. 6d). […] Urea weakened the binding to the native structure so that the stabilising effects in 3 M urea are not as pronounced as they would be in water alone.
For orientation: Polarisation of emitted light reports the rotation of a fluorescent probe.

In data set [3] the target is T2, p53 core domain mutant I195T (Homo sapiens, UniProt P04637, I195T).
T2 construct: human p53 core domain wild-type and mutants (residues 94-312); made in house
The data set can be described thus: Restoration of sequence-specific DNA binding (fluorescein-labelled Gadd45 DNA, anisotropy). Format: biochemical. The following applies: CDB3 100 μM.

For data set [4], the target named is T3, wild-type p53 core domain (Homo sapiens, UniProt P04637).
T3 construct: human p53 core domain wild-type and mutants (residues 94-312); made in house
The data set can be described thus: DNA binding in presence of peptide (Gadd45 DNA). Format: biochemical.

The target of data set [5] is T2, p53 core domain mutant I195T. The data set can be described thus: Binding to random double stranded DNA sequence in presence of peptide. Format: biochemical. The text has this: To confirm that the restoration of DNA binding is sequence-specific, we repeated the experiments with the random double stranded DNA sequence fluorescein-[…] […].
The next data set relates to tumour cells. Kind of data set: FACS analysis of cell cycle distribution and cell death (subG1). It is filed as cell-based. Conditions: 10 μg/mL, 24 h. In general terms: A flow cytometer gives signals particle by particle.
For the next data set, the target named is p53 (Homo sapiens, UniProt P04637). The data set can be described thus: Stabilisation of active conformations of p53 (no method given).
The target in data set [6] is T1, p53 core domain. Conditions: Gadd45 DNA 5-25 μM.
For data set [7], the target named is T3, wild-type p53 core domain. The data set can be described thus: Differential scanning calorimetry (apparent Tm). It is filed as binding. The following applies: HEPES buffer pH 7.2, 1 mM DTT; 40.1° C. without peptide. Here is the method:
Differential Scanning Calorimetry may also be used to detect and/or quantify binding. Differential Scanning Calorimetry may be performed using methods known to those skilled in the art. In a suitable example, DSC experiments are performed using a Microcal VP-DSC microcalorimeter (Microcal, Amherst, Mass.). Temperatures from 5 to 95° C. are scanned at a rate of 60 deg/h, using a HEPES buffer pH 7.2, 1 mM DTT, which also served for baseline measurements. […] A pressure of 25 psi […] is applied to the cell. The data is analysed using Origin software (Microcal).
The thermal denaturation of p53 core domain is irreversible, and thus only an apparent melting temperature (Tm) can be determined (Bullock et al., 1997), but increase in stability can be correlated with increase in the apparent Tm. All DSC measurements are carried out in HEPES buffer pH 7.2, 1 mM DTT.
On the technique in general: In DSC, transitions show as peaks or steps in heat flow.

Another data set relates to H1299-His175 cells. Kind of data set: Dead cells by trypan blue exclusion. Format: cell-based. Conditions: 10 μg/mL peptide, 24 h; before treatment 5%.
Data set [8] has as its system p53 mutant His175 in H1299 lung carcinoma cells. The following applies: 24 h incubation. Here is the method: (§1) The general methods used in the examples set forth below are described in detail in Bykov et al., Nature Med 8, 282-288 (2002) which is herein incorporated by reference.
Lung carcinoma cells H1299 transfected with His175 p53 mutant and parental nontransfected cells were treated with the amounts of peptide indicated below, incubated for 24 h and tested for p53, p21, and Mdm-2 protein expression. […] The treatment with peptide was performed either with or without Lipofectamine.

In a further data set the test system is Saos-2-His273 cells. The data set can be described thus: Dead cells by trypan blue exclusion. It is filed as cell-based. Conditions: 10 μg/mL peptide, 24 h; before treatment 3%.
Data set [9] concerns control Saos-2 (p53 null) cells. Conditions: 10 μg/mL peptide, 24 h; before treatment 3%. As to the method: as §1
(§2) Tumour cells were treated with 10 μg/mL of peptide and analysed the cell cycle distribution and cell death (as subG1 fraction) 24 h post treatment using FACS analysis.

The test system of data set [10] is control H1299 (p53 null) cells. Conditions: 10 μg/mL peptide, 24 h; before treatment 3%. As to the method:
as §1, §2

The subject of data set [11] is wtp53 in colon carcinoma HCT116 cells. The data set can be described thus: Western blot of induced protein expression. Format: cell-based. Conditions: 24 h, 10 μg/mL FL-CDB3.
The next data set has as its system HCTp53-/- cells. The data set can be described thus: Western blot of induced protein expression. It is filed as cell-based. Conditions: 24 h, 10 μg/mL FL-CDB3.
Data set [12] concerns the target wild-type p53 core domain (94-312) (Homo sapiens, UniProt P04637). The following applies: increasing urea concentrations.
A further data set relates to p53 mutant His273. Conditions: 24 h incubation, 1-10 μg/mL FL-CDB3.
Data set [13] concerns the target T1, p53 core domain. Kind of data set: Anisotropy competition with fluorescein-labeled CDB3. The following applies: solution measurements.
In data set [14] the target is T1, p53 core domain. Kind of data set: BIAcore binding of p53 core domain to immobilised biotinylated CDB3 (half saturation concentration). Also on record: human p53 core domain wild-type and mutants (residues 94-312); made in house. The text has this: Surface plasmon resonance measurements may be performed using a BIAcore 2000 using methods familiar to those skilled in the art. For example, it may be equipped with a sensor chip SA (BIAcore AB, Uppsala, Sweden) both to screen the polypeptide for binding of stabilising molecule and to quantify the binding of the stabilising molecule to the polypeptide. […] Biotinylated stabilising molecules such as CDB peptides may be immobilised and the binding of the polypeptide (in this case p53) can therefore be studied.
All immobilisation as well as binding measurements may be performed at 10° C. with 50 mM HEPES, pH 7.2, 5 mM DTT, as running buffer, using a sample frequency of 1 Hz. The streptavidin surface of the chip can be activated with […] NaOH, 1 M NaCl, in three cycles of 1 min, 20 μL/min, before the immobilization of peptides. The biotinylated peptides may be dissolved to a final concentration of 1.5-4.0 mM (in buffer as above with addition of 0.13 M NaCl) and can be immobilised at a flow rate of 5 μL/min until the level of saturation is reached. In the above Example Flow cell 1 can be used as a background for the change in bulk refractive index.
The binding association is measured for 5 min at 30 μL/min, […], in the buffer described above (no salt added). […]
Surface plasmon resonance can be used to measure the CDB3-p53 core domain binding constant quantitatively. […]

SMILES strings stand for the structures. “And” between values parts separate entries of the source, which are not always exact repeats. Equal entries are not always repeated. Where two headings read alike, the source gives them in different places.

For `CC[C@H](C)[C@H](NC(=O)[C@H](CCC(=O)O)NC(=O)[C@H](CC(=O)O)NC(=O)[C@H](CCC(=O)O)NC(=O)[C@H](CC(=O)O)NC(=O)[C@H](CCC(=O)O)NC(=O)[C@@H](N)CCCNC(=N)N)C(=O)N[C@@H](CCC(=O)O)C(=O)N[C@@H](Cc1c[nH]c2ccccc12)C(N)=O` [CDB3], the penetration into cells result in [1] is “able to penetrate inside the cells by itself”. Besides, at p53 core domain [2], the “refolding of p53 core domain” value is listed as “induced refolding of p53 core domain”. Further, the “improvement of I195T binding to Gadd45 DNA” value in data set [3] is reported as “six fold”. Also, the “effect on DNA binding of wild-type p53 core domain” value in [4] was “did not affect DNA binding”. Moreover, in data set [5], the “effect on binding of I195T to random DNA sequence” value is recorded as “not improved, but rather inhibited”. Besides, in the data set with tumour cells, the apoptosis result is “induces apoptosis in tumour cells in p53-dependent manner” and the growth arrest entry is “no growth arrest was detected”.
For the molecule `COc1ccc(/C=C/c2nc(NCCCN(C)C)c3ccccc3n2)cc1` [CP-31398], the “stabilisation of active conformations of p53” value at p53 is listed as “does not in fact work to stabilise active conformations of p53”.
In the case of `CC[C@H](C)[C@H](NC(=O)[C@H](CCC(=O)O)NC(=O)[C@H](CC(=O)O)NC(=O)[C@H](CCC(=O)O)NC(=O)[C@H](CC(=O)O)NC(=O)[C@H](CCC(=O)O)NC(=O)[C@H](CCCNC(=N)N)NC(=O)c1ccc2c(c1)C(=O)OC21c2ccc(O)cc2Oc2cc(O)ccc21)C(=O)N[C@@H](CCC(=O)O)C(=O)N[C@@H](Cc1c[nH]c2ccccc12)C(N)=O` [FL-CDB3], the “displacement of peptide from p53 core domain by DNA” value at p53 core domain [6] was “displaced the peptide completely”. In addition, the “apparent Tm of wild-type core domain in presence of peptide” value in data set [7] turned out to be 41.6 °C. For the same molecule, the penetration into cells result in [1] is on record as “able to penetrate inside the cells by itself”. Further, the “dead cells after treatment” value in the data set on H1299-His175 cells amounted to 37%; in the data set on Saos-2-His273 cells it was 28%; in data set [9] it was 13%; in [10], 11%. In data set [8], the “mutant p53 levels” value is “remarkably increased”. Further, the “p21 and Mdm-2 protein expression” value in [8] (10 μg/mL FL-CDB3) was “restored the ability of p53 mutants His175 and His273 to activate the transcription of endogenous genes p21 and Mdm-2”; with p53 mutant His273, “restored the ability of p53 mutants His175 and His273 to activate the transcription of endogenous genes p21 and Mdm-2”. In addition, the “Mdm-2 and p21 expression” value in data set [11] is “activates expression of Mdm-2 and p21”. The “p21 and Mdm-2 induction” value in the data set with HCTp53-/- cells is on record as “No induction of p21 nor Mdm-2”. The “dependence of binding on urea concentration” value in [12] is reported as “binding weakened with increasing urea concentrations”.
As for `CC[C@H](C)[C@H](NC(=O)[C@H](CCC(=O)O)NC(=O)[C@H](CC(=O)O)NC(=O)[C@H](CCC(=O)O)NC(=O)[C@H](CC(=O)O)NC(=O)[C@H](CCC(=O)O)NC(=O)[C@H](CCCNC(=N)N)NC(=O)CCCC[C@@H]1SC[C@@H]2NC(=O)N[C@@H]21)C(=O)N[C@@H](CCC(=O)O)C(=O)N[C@@H](Cc1c[nH]c2ccccc12)C(N)=O` [biotinylated CDB3], the “improvement of affinity compared to the unlabeled peptide” value at p53 core domain [13] is recorded as “three-fold”. Besides, the Kd is about 200 nM on p53 core domain [14] (biotinylated CDB3 immobilized on SA sensor chip, read-out: concentration of p53 core domain for 50% binding); 200 nM and ~200 nM at p53 core domain [14] (immobilized peptide, half saturation concentration by BIAcore, read-out: Kd).
